Experiments:
Format in all cases: in vivo
Settings in all cases: 250 g/ha, evaluated after 13 days
[1] = tested on: Ipomoea hederacea (IPOHE); experiment: Pre-emergence herbicide glasshouse test
Description: (§1) Seeds of a variety of test species are sown in standard soil in pots Amaranthus palmeri (AMAPA), Amaranthus retoflexus (AMARE), Echinochloa crus-galli (ECHCG), Ipomoea hederacea (IPOHE)). After cultivation for one day (pre-emergence) or after 8 days cultivation (post-emergence) under controlled conditions in a glasshouse (at 24/16° C., day/night; 14 hours light; 65% humidity), the plants are sprayed with an aqueous spray solution derived from the formulation of the technical active ingredient in acetone/water (50:50) solution containing 0.5% Tween 20 (polyoxyethelyene sorbitan monolaurate, CAS RN 9005-64-5). Compounds are applied at 250 g/ha unless otherwise stated. The test plants are then grown in a glasshouse under controlled conditions in a glasshouse (at 24/16° C., day/night; 14 hours light; 65% humidity) and watered twice daily. After 13 days for pre and post-emergence, the test is evaluated for the percentage damage caused to the plant. The biological activities are shown in the following table on a five-point scale (5=81-100%; 4=61-80%; 3=41-60%; 2=21-40%; 1=0-20%).

[2] = tested on: Amaranthus palmeri (AMAPA); experiment: Pre-emergence herbicide glasshouse test
Description: as §1

[3] = tested on: Amaranthus retoflexus (AMARE); experiment: Pre-emergence herbicide glasshouse test
Description: as §1

[4] = tested on: Echinochloa crus-galli (ECHCG); experiment: Pre-emergence herbicide glasshouse test
Description: as §1

[5] = tested on: Ipomoea hederacea (IPOHE); experiment: Post-emergence herbicide glasshouse test
Description: as §1

[6] = tested on: Amaranthus palmeri (AMAPA); experiment: Post-emergence herbicide glasshouse test
Description: as §1

[7] = tested on: Amaranthus retoflexus (AMARE); experiment: Post-emergence herbicide glasshouse test
Description: as §1

[8] = tested on: Echinochloa crus-galli (ECHCG); experiment: Post-emergence herbicide glasshouse test
Description: as §1

| Structure (SMILES) | percentage damage caused to the plant, IPOHE (five-point scale) [1] | percentage damage caused to the plant, AMAPA (five-point scale) [2] | percentage damage caused to the plant, AMARE (five-point scale) [3] | percentage damage caused to the plant, ECHCG (five-point scale) [4] | percentage damage caused to the plant, IPOHE (five-point scale) [5] | percentage damage caused to the plant, AMAPA (five-point scale) [6] | percentage damage caused to the plant, AMARE (five-point scale) [7] | percentage damage caused to the plant, ECHCG (five-point scale) [8] |
| --- | --- | --- | --- | --- | --- | --- | --- | --- |
| Cc1nnc(Cn2cc(C(F)F)nc2-c2cnc(Cl)c(F)c2)s1 [Compound 1.016] | 1 (1=0-20%) | 4 (4=61-80%) | 5 (5=81-100%) | 1 (1=0-20%) | 1 (1=0-20%) | 1 (1=0-20%) | 1 (1=0-20%) | 1 (1=0-20%) |
| Cc1nnc(Cn2cc(C(F)(F)F)nc2-c2cnc(Cl)c(F)c2)s1 [Compound 1.017] | 5 (5=81-100%) | 5 (5=81-100%) | 5 (5=81-100%) | 4 (4=61-80%) | 1 (1=0-20%) | 5 (5=81-100%) | 5 (5=81-100%) | 2 (2=21-40%) |
| Cn1cnc(Cn2cc(C(F)(F)F)nc2-c2cnc(Cl)c(F)c2)n1 [Compound 1.018] | 5 (5=81-100%) | 5 (5=81-100%) | 5 (5=81-100%) | 5 (5=81-100%) | 4 (4=61-80%) | 5 (5=81-100%) | 5 (5=81-100%) | 5 (5=81-100%) |
| Cn1cnc(Cn2cc(C(F)(F)F)nc2-c2ccc(F)c(F)c2)n1 [Compound 1.020] | 5 (5=81-100%) | 5 (5=81-100%) | 5 (5=81-100%) | 5 (5=81-100%) | 4 (4=61-80%) | 5 (5=81-100%) | 5 (5=81-100%) | 5 (5=81-100%) |
| Cc1nnc(Cn2cc(C(F)(F)F)nc2-c2ccc(F)c(F)c2)s1 [Compound 1.021] | 5 (5=81-100%) | 5 (5=81-100%) | 5 (5=81-100%) | 5 (5=81-100%) | 4 (4=61-80%) | 5 (5=81-100%) | 5 (5=81-100%) | 4 (4=61-80%) |
| Cc1cc(Cn2cc(C(F)F)nc2-c2cnc(Cl)c(F)c2)no1 [Compound 1.024] | 5 (5=81-100%) | 5 (5=81-100%) | 5 (5=81-100%) | 4 (4=61-80%) | 4 (4=61-80%) | 5 (5=81-100%) | 5 (5=81-100%) | 2 (2=21-40%) |
| Cc1cc(Cn2cc(C(F)(F)F)nc2-c2cnc(Cl)c(F)c2)no1 [Compound 1.025] | 4 (4=61-80%) | 5 (5=81-100%) | 5 (5=81-100%) | 4 (4=61-80%) | 2 (2=21-40%) | 4 (4=61-80%) | 5 (5=81-100%) | 4 (4=61-80%) |
| Cn1ccc(Cn2cc(C(F)(F)F)nc2-c2cnc(Cl)c(F)c2)n1 [Compound 1.026] | 5 (5=81-100%) | 5 (5=81-100%) | 5 (5=81-100%) | 4 (4=61-80%) | 4 (4=61-80%) | 4 (4=61-80%) | 4 (4=61-80%) | 3 (3=41-60%) |
| Cc1cc(Cn2cc(C(F)(F)F)nc2-c2cnc(Cl)c(F)c2)ns1 [Compound 1.027] | 4 (4=61-80%) | 5 (5=81-100%) | 5 (5=81-100%) | 3 (3=41-60%) | 4 (4=61-80%) | 4 (4=61-80%) | 4 (4=61-80%) | 4 (4=61-80%) |
| Fc1cc(-c2nc(C(F)(F)F)cn2Cc2cc(C3CC3)on2)cnc1Cl [Compound 1.028] | 4 (4=61-80%) | 5 (5=81-100%) | 5 (5=81-100%) | 1 (1=0-20%) | 1 (1=0-20%) | 3 (3=41-60%) | 4 (4=61-80%) | 1 (1=0-20%) |
| Cc1cnc(Cn2cc(C(F)(F)F)nc2-c2ccc(Cl)nc2)s1 [Compound 1.034] | 5 (5=81-100%) | 5 (5=81-100%) | 5 (5=81-100%) | 5 (5=81-100%) | 4 (4=61-80%) | 5 (5=81-100%) | 5 (5=81-100%) | 5 (5=81-100%) |
| Cc1cc(Cn2cc(C(F)(F)F)nc2-c2ccc(Cl)nc2)nn1C [Compound 1.044] | 1 (1=0-20%) | 5 (5=81-100%) | 5 (5=81-100%) | 1 (1=0-20%) | 4 (4=61-80%) | 4 (4=61-80%) | 4 (4=61-80%) | 1 (1=0-20%) |
| Cn1ccc(Cn2cc(C(F)(F)F)nc2-c2ccc(Cl)nc2)n1 [Compound 1.045] | 5 (5=81-100%) | 5 (5=81-100%) | 5 (5=81-100%) | 1 (1=0-20%) | 4 (4=61-80%) | 5 (5=81-100%) | 5 (5=81-100%) | 1 (1=0-20%) |
| CCc1cc(Cn2cc(C(F)(F)F)nc2-c2ccc(Cl)nc2)no1 [Compound 1.046] | 5 (5=81-100%) | 5 (5=81-100%) | 5 (5=81-100%) | 5 (5=81-100%) | 4 (4=61-80%) | 5 (5=81-100%) | 5 (5=81-100%) | 4 (4=61-80%) |
| FC(F)n1ccc(Cn2cc(C(F)(F)F)nc2-c2ccc(Cl)nc2)n1 [Compound 1.051] | 5 (5=81-100%) | 5 (5=81-100%) | 5 (5=81-100%) | 1 (1=0-20%) | 4 (4=61-80%) | 5 (5=81-100%) | 5 (5=81-100%) | 1 (1=0-20%) |
